Test results from US8178570B2, “Tie-2 modulators and methods of use” (Exelixis, Inc., priority 2003, dated 2012).

molecular target: Tie-2 (Homo sapiens, UniProt Q02763); assay: Tie-2 tyrosine kinase activity: kinase-dependent ATP consumption (pEY substrate, luciferase/luciferin chemiluminescence) or 33P-ATP incorporation into substrate; type: biochemical; details: Tie-2 (human enzyme) inhibition, Table 2, class symbols A-D
Method in brief: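 Tie-2 kinase activity is read either as ATP consumption with pEY substrate by luciferase/luciferin chemiluminescence, or as 33P incorporation from 33P-ATP into plate-adsorbed substrate by scintillation counting. IC50 values are binned as A <50 nM, B >50–1000 nM, C >1000–<10,000 nM, and D ≥10,000 nM.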

Chain of Tie-2 (Q02763 23-1124): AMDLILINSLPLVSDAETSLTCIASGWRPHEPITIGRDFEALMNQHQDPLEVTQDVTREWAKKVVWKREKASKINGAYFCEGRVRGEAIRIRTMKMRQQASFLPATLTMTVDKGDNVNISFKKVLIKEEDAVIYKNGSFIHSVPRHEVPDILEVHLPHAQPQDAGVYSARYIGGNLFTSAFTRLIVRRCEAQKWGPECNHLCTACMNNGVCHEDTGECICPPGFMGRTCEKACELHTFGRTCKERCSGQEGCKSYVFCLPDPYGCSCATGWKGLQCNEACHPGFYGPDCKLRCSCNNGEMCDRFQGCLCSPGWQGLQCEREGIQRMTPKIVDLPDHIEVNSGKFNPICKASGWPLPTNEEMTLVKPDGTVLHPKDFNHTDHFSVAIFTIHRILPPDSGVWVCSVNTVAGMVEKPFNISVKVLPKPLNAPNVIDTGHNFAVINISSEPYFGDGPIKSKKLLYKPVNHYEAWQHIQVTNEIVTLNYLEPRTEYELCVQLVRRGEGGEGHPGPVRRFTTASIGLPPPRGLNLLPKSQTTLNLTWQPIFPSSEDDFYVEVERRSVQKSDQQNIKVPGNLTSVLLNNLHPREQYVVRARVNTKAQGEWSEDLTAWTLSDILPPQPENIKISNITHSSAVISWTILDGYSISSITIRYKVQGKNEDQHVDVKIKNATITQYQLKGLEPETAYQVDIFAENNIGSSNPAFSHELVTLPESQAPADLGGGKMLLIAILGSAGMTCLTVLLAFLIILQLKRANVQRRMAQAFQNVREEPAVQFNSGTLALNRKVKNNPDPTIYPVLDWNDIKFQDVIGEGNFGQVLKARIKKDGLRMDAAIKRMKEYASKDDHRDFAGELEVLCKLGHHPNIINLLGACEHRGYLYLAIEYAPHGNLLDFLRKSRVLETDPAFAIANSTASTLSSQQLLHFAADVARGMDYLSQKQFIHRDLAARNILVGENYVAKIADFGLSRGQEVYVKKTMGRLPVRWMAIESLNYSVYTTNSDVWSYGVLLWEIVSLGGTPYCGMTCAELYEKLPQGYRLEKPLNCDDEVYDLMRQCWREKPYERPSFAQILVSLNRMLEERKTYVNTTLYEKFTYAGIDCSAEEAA

Row | IC50 [µM] | Compound
1 | ≥ 10 | COc1ccc(-c2nc(-c3ccncc3)nn2CCN(C(=O)NC(C)(C)C)C2CCCC2)cc1Cl [Entry 107, N-(2-{5-[3-chloro-4-(methyloxy)phenyl]-3-pyridin-4-yl-1H-1,2,4-triazol-1-yl}ethyl)-N-cyclopentyl-N′-(1,1-dimethylethyl)urea]
2 | ≥ 10 | COc1ccc(-c2nc(-c3ccncc3)nn2CCN(C(=O)NC(C)C)C2CCCC2)cc1Cl [Entry 108, N-(2-{5-[3-chloro-4-(methyloxy)phenyl]-3-pyridin-4-yl-1H-1,2,4-triazol-1-yl}ethyl)-N-cyclopentyl-N′-(1-methylethyl)urea]
3 | ≥ 10 | CCNC(=O)N(CCn1nc(-c2ccncc2)nc1-c1ccc(OC)c(Cl)c1)C1CCCC1 [Entry 109, N-(2-{5-[3-chloro-4-(methyloxy)phenyl]-3-pyridin-4-yl-1H-1,2,4-triazol-1-yl}ethyl)-N-cyclopentyl-N′-ethylurea]
4 | ≥ 10 | CCCNC(=O)N(CCn1nc(-c2ccncc2)nc1-c1ccc(OC)c(Cl)c1)C1CCCC1 [Entry 110, N-(2-{5-[3-chloro-4-(methyloxy)phenyl]-3-pyridin-4-yl-1H-1,2,4-triazol-1-yl}ethyl)-N-cyclopentyl-N′-propylurea]
5 | 1 to 10 | CCOc1ccc(NC(=O)N(CCn2nc(-c3ccncc3)nc2-c2ccc(OC)c(Cl)c2)C2CCCC2)cc1 [Entry 111, N-(2-{5-[3-chloro-4-(methyloxy)phenyl]-3-pyridin-4-yl-1H-1,2,4-triazol-1-yl}ethyl)-N-cyclopentyl-N′-[4-(ethyloxy)phenyl]urea]
6 | ≥ 10 | CCc1ccc(NC(=O)N(CCn2nc(-c3ccncc3)nc2-c2ccc(OC)c(Cl)c2)C2CCCC2)cc1 [Entry 112, N-(2-{5-[3-chloro-4-(methyloxy)phenyl]-3-pyridin-4-yl-1H-1,2,4-triazol-1-yl}ethyl)-N-cyclopentyl-N′-(4-ethylphenyl)urea]
7 | ≥ 10 | COc1ccc(-c2nc(-c3ccncc3)nn2CCN(C(=O)NCCc2ccccc2)C2CCCC2)cc1Cl [Entry 113, N-(2-{5-[3-chloro-4-(methyloxy)phenyl]-3-pyridin-4-yl-1H-1,2,4-triazol-1-yl}ethyl)-N-cyclopentyl-N′-(2-phenylethyl)urea]
8 | ≥ 10 | C=C(C)c1cccc(C(C)(C)NC(=O)N(CCn2nc(-c3ccncc3)nc2-c2ccc(OC)c(Cl)c2)C2CCCC2)c1 [Entry 114, N-(2-{5-[3-chloro-4-(methyloxy)phenyl]-3-pyridin-4-yl-1H-1,2,4-triazol-1-yl}ethyl)-N-cyclopentyl-N′-{1-methyl-1-[3-(1-methylethenyl)phenyl]ethyl}urea]
9 | ≥ 10 | COc1ccc(-c2nc(-c3ccncc3)nn2CCN(C(=O)Nc2ccccc2F)C2CCCC2)cc1Cl [Entry 115, N-(2-{5-[3-chloro-4-(methyloxy)phenyl]-3-pyridin-4-yl-1H-1,2,4-triazol-1-yl}ethyl)-N-cyclopentyl-N′-(2-fluorophenyl)urea]
10 | ≥ 10 | COc1ccc(-c2nc(-c3ccncc3)nn2CCN(C(=O)Nc2ccc(F)cc2F)C2CCCC2)cc1Cl [Entry 116, N-(2-{5-[3-chloro-4-(methyloxy)phenyl]-3-pyridin-4-yl-1H-1,2,4-triazol-1-yl}ethyl)-N-cyclopentyl-N′-(2,4-difluorophenyl)urea]
11 | ≥ 10 | COc1ccc(-c2nc(-c3ccncc3)nn2CCN(C(=O)Nc2c(F)cccc2F)C2CCCC2)cc1Cl [Entry 117, N-(2-{5-[3-chloro-4-(methyloxy)phenyl]-3-pyridin-4-yl-1H-1,2,4-triazol-1-yl}ethyl)-N-cyclopentyl-N′-(2,6-difluorophenyl)urea]
12 | 1 to 10 | COc1ccc(-c2nc(-c3ccncc3)nn2CCN(C(=O)Nc2ccccc2Cl)C2CCCC2)cc1Cl [Entry 118, N-(2-{5-[3-chloro-4-(methyloxy)phenyl]-3-pyridin-4-yl-1H-1,2,4-triazol-1-yl}ethyl)-N′-(2-chlorophenyl)-N-cyclopentylurea]
13 | ≥ 10 | COc1ccc(-c2nc(-c3ccncc3)nn2CCN(C(=O)Nc2cccc(Cl)c2Cl)C2CCCC2)cc1Cl [Entry 119, N-(2-{5-[3-chloro-4-(methyloxy)phenyl]-3-pyridin-4-yl-1H-1,2,4-triazol-1-yl}ethyl)-N-cyclopentyl-N′-(2,3-dichlorophenyl)urea]
14 | ≥ 10 | COc1ccc(OC)c(NC(=O)N(CCn2nc(-c3ccncc3)nc2-c2ccc(OC)c(Cl)c2)C2CCCC2)c1 [Entry 120, N′-[2,5-bis(methyloxy)phenyl]-N-(2-{5-[3-chloro-4-(methyloxy)phenyl]-3-pyridin-4-yl-1H-1,2,4-triazol-1-yl}ethyl)-N-cyclopentylurea]
15 | 1 to 10 | CCOc1ccccc1NC(=O)N(CCn1nc(-c2ccncc2)nc1-c1ccc(OC)c(Cl)c1)C1CCCC1 [Entry 121, N-(2-{5-[3-chloro-4-(methyloxy)phenyl]-3-pyridin-4-yl-1H-1,2,4-triazol-1-yl}ethyl)-N-cyclopentyl-N′-[2-(ethyloxy)phenyl]urea]
16 | ≥ 10 | COc1ccc(-c2nc(-c3ccncc3)nn2CCN(C(=O)Nc2ccccc2C(F)(F)F)C2CCCC2)cc1Cl [Entry 122, N-(2-{5-[3-chloro-4-(methyloxy)phenyl]-3-pyridin-4-yl-1H-1,2,4-triazol-1-yl}ethyl)-N-cyclopentyl-N′-[2-(trifluoromethyl)phenyl]urea]
17 | ≥ 10 | COc1ccc(-c2nc(-c3ccncc3)nn2CCN(C(=O)Nc2c(C)cccc2C)C2CCCC2)cc1Cl [Entry 123, N-(2-{5-[3-chloro-4-(methyloxy)phenyl]-3-pyridin-4-yl-1H-1,2,4-triazol-1-yl}ethyl)-N-cyclopentyl-N′-(2,6-dimethylphenyl)urea]
18 | ≥ 10 | COc1ccc(-c2nc(-c3ccncc3)nn2CCN(C(=O)Nc2ccc(C(F)(F)F)cc2)C2CCCC2)cc1Cl [Entry 124, N-(2-{5-[3-chloro-4-(methyloxy)phenyl]-3-pyridin-4-yl-1H-1,2,4-triazol-1-yl}ethyl)-N-cyclopentyl-N′-[4-(trifluoromethyl)phenyl]urea]
19 | 1 to 10 | COc1ccc(-c2nc(-c3ccncc3)nn2CCN(C(=O)N[C@@H](C)c2ccccc2)C2CCCC2)cc1Cl [Entry 125, N-(2-{5-[3-chloro-4-(methyloxy)phenyl]-3-pyridin-4-yl-1H-1,2,4-triazol-1-yl}ethyl)-N-cyclopentyl-N′-[(1S)-1-phenylethyl]urea]
20 | ≥ 10 | COc1ccc(-c2nc(-c3ccncc3)nn2CCN(C(=O)Nc2cc(Cl)c(Cl)cc2Cl)C2CCCC2)cc1Cl [Entry 126, N-(2-{5-[3-chloro-4-(methyloxy)phenyl]-3-pyridin-4-yl-1H-1,2,4-triazol-1-yl}ethyl)-N-cyclopentyl-N′-(2,4,5-trichlorophenyl)urea]
21 | 1 to 10 | COc1ccc(-c2nc(-c3ccncc3)nn2CCN(C(=O)Nc2cccc(C)c2C)C2CCCC2)cc1Cl [Entry 127, N-(2-{5-[3-chloro-4-(methyloxy)phenyl]-3-pyridin-4-yl-1H-1,2,4-triazol-1-yl}ethyl)-N-cyclopentyl-N′-(2,3-dimethylphenyl)urea]
22 | ≥ 10 | COc1ccc(-c2nc(-c3ccncc3)nn2CCN(C(=O)Nc2ccc(C)cc2C)C2CCCC2)cc1Cl [Entry 128, N-(2-{5-[3-chloro-4-(methyloxy)phenyl]-3-pyridin-4-yl-1H-1,2,4-triazol-1-yl}ethyl)-N-cyclopentyl-N′-(2,4-dimethylphenyl)urea]
23 | ≥ 10 | COc1ccc(-c2nc(-c3ccncc3)nn2CCN(C(=O)Nc2ccc(C)c(Cl)c2)C2CCCC2)cc1Cl [Entry 129, N-(2-{5-[3-chloro-4-(methyloxy)phenyl]-3-pyridin-4-yl-1H-1,2,4-triazol-1-yl}ethyl)-N′-(3-chloro-4-methylphenyl)-N-cyclopentylurea]
24 | ≥ 10 | COc1ccc(-c2nc(-c3ccncc3)nn2CCN(C(=O)Nc2c(C)cccc2C(C)(C)C)C2CCCC2)cc1Cl [Entry 130, N-(2-{5-[3-chloro-4-(methyloxy)phenyl]-3-pyridin-4-yl-1H-1,2,4-triazol-1-yl}ethyl)-N-cyclopentyl-N′-[2-(1,1-dimethylethyl)-6-methylphenyl]urea]
25 | ≥ 10 | CCCCOc1ccc(NC(=O)N(CCn2nc(-c3ccncc3)nc2-c2ccc(OC)c(Cl)c2)C2CCCC2)cc1 [Entry 131, N′-[4-(butyloxy)phenyl]-N-(2-{5-[3-chloro-4-(methyloxy)phenyl]-3-pyridin-4-yl-1H-1,2,4-triazol-1-yl}ethyl)-N-cyclopentylurea]
26 | ≥ 10 | COc1ccc(-c2nc(-c3ccncc3)nn2CCN(C(=O)Nc2cccc([N+](=O)[O-])c2C)C2CCCC2)cc1Cl [Entry 132, N-(2-{5-[3-chloro-4-(methyloxy)phenyl]-3-pyridin-4-yl-1H-1,2,4-triazol-1-yl}ethyl)-N-cyclopentyl-N′-(2-methyl-3-nitrophenyl)urea]
27 | ≥ 10 | COc1ccc(-c2nc(-c3ccncc3)nn2CCN(C(=O)Nc2cc(Cl)ccc2Cl)C2CCCC2)cc1Cl [Entry 133, N-(2-{5-[3-chloro-4-(methyloxy)phenyl]-3-pyridin-4-yl-1H-1,2,4-triazol-1-yl}ethyl)-N-cyclopentyl-N′-(2,5-dichlorophenyl)urea]
28 | 1 to 10 | COc1ccc(-c2nc(-c3ccncc3)nn2CCN(C(=O)Nc2cccc(F)c2)C2CCCC2)cc1Cl [Entry 134, N-(2-{5-[3-chloro-4-(methyloxy)phenyl]-3-pyridin-4-yl-1H-1,2,4-triazol-1-yl}ethyl)-N-cyclopentyl-N′-(3-fluorophenyl)urea]
29 | ≥ 10 | COc1ccc(-c2nc(-c3ccncc3)nn2CCN(C(=O)Nc2ccc(Cl)cc2)C2CCCC2)cc1Cl [Entry 135, N-(2-{5-[3-chloro-4-(methyloxy)phenyl]-3-pyridin-4-yl-1H-1,2,4-triazol-1-yl}ethyl)-N′-(4-chlorophenyl)-N-cyclopentylurea]
30 | ≥ 10 | COc1ccc(-c2nc(-c3ccncc3)nn2CCN(C(=O)Nc2ccc(C)cc2)C2CCCC2)cc1Cl [Entry 136, N-(2-{5-[3-chloro-4-(methyloxy)phenyl]-3-pyridin-4-yl-1H-1,2,4-triazol-1-yl}ethyl)-N-cyclopentyl-N′-(4-methylphenyl)urea]
